Assays:
[1] = biological target: Stimulator of interferon genes protein (Homo sapiens, UniProt Q86WV6); assay: Agonist activity at STING in human THP-1 cells harboring IRF-inducible luciferase reporter construct assessed as fold change in ISG signalling at 20 uM incubated for 12 hrs by Quanti-luc reagent based assay relative to control; format: cell-based; details: filed as agonist
[2] = Half life in Sprague-Dawley rat at 5 mg/kg, iv measured for 1440 mins by LC-MS/MS analysis; format: ADME, organism-based; details: in vivo
[3] = Permeability of the compound in PBS buffer incubated for 5 hrs by PAMPA-based LC-MS/MS analysis; format: ADME; details: read-out: permeability
[4] = tested on: Mus musculus; assay: Immunostimulatory activity in naive […] mouse implanted with mouse MC38 cells assessed as increase in CD69-positive CD8 T cells in spleen at 30 mg/kg, po by FACS analysis (reference value: 8.9 %); format: functional, MC-38

Stimulator of interferon genes protein, sequence (Q86WV6 whole entry): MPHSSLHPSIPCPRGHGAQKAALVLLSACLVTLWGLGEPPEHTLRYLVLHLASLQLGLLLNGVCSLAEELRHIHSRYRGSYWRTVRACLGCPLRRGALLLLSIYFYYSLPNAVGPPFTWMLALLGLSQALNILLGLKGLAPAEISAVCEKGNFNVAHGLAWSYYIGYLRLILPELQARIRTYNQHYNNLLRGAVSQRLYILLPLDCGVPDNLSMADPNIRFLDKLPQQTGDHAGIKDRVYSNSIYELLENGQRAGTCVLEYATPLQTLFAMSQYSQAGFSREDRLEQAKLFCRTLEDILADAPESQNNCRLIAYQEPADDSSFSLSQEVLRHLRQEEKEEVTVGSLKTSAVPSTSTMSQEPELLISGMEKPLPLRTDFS

CC[C@H](CC(=O)c1cc2cc(OC)c(OC)cc2[se]1)C(=O)O
fold change (FC) [1]: 37 | half-life [2]: 1.04 h | Papp at 5 h [3]: 2.04 ×10⁻⁶ cm/s | Activity [4]: 94.2%
